Structures can show the parent of a compound that is named as a salt. Where two headings read alike, the source gives them in different places.
Tests used:
Format in all cases: biochemical
[1] = target: T1, 5-hydroxytryptamine (5-HT) reuptake sites (Rattus norvegicus, UniProt P31652); experiment: inhibition of [3H]5-HT uptake in vitro, frontal cortical synaptosomes
T1 construct: Frontal cortical tissue from the brains of male Sprague-Dawley rats; from tissue; host or cells: rat brain frontal cortex (crude synaptosomes in A2, washed membranes in A5)
Procedure: (§1) Frontal cortical tissue from the brains of male Sprague-Dawley rats (Charles River; weight range 150-250 g) was homogenised in ice-cold 0.32M sucrose (1:10 w/v) using a motor driven teflon pestle (difference in diameter between mortar and pestle 0.5 mm). Nuclei and cell debris were removed by centrifugation at 1,500 g at 4° C. for 10 minutes. The pellet (P1) was discarded and the supernatant centrifuged at 28,000 g at 4° C. for 10 minutes. The crude synaptosomal pellet (P2) was resuspended in Krebs-Henseleit buffer (equivalent to 8.3 mg wet weight of tissue/ml).
Crude synaptosomes were incubated in a shaking water bath at 37° C. for 15 minutes. Aliquots (150 μl; equivalent to 1.25 mg wet weight of tissue/tube) were then added to tubes containing 275 μl of Krebs-Henseleit buffer and 50 μl of Krebs-Henseleit buffer (total uptake) or 50 μl of test compound (at 10 concentrations ranging from 10^-11 -10^-4 M) or 50 μl of zimeldine (10^-5 M; non-specific uptake). Uptake was initiated by the addition of 25 μl of freshly prepared [^3 H]5-HT (2 nM), followed by vortexing, and was continued for 5 minutes at 37° C. in the shaking water bath. Uptake was terminated by filtration under vacuum through Skatron 11734 filters using a Skatron cell harvester. Filters were then washed with 8 ml ice-cold saline. The scored filter paper discs were punched into vials, scintillation fluid added and radioactivity determined by liquid scintillation counting.
(§2) For each of the dopamine (DA) uptake, 5-hydroxytryptamine (5-HT) uptake and noradrenaline (NA) uptake inhibition tests, the percentage inhibition of specific uptake of the tritiated ligand was calculated for each concentration of test compound. Inhibition curves were then produced. The concentration which gave 50% inhibition of specific uptake (IC50) was obtained from the curve. The inhibition constant (Ki) was then calculated using the formula [formula]
(§3) in which [ligand] is the concentration of tritiated ligand used and Km is the affinity of the uptake site for the ligand. […] Values are means of three independent determinations unless otherwise indicated.

[2] = target: T2, noradrenaline (NA) reuptake sites (Rattus norvegicus, UniProt Q63380); experiment: inhibition of [3H]noradrenaline uptake in vitro, frontal cortical synaptosomes; details: [3H]noradrenaline 10 nM, means of three independent determinations
T2 construct: Frontal cortical tissue from the brains of male Sprague-Dawley rats; from tissue; host or cells: rat brain frontal cortex (crude synaptosomes in A3, washed membranes in A6)
Procedure: as §1, with “Krebs-Physiological” for “Krebs-Henseleit”, “16.7” for “8.3”
Crude synaptosomes were incubated in a shaking water bath at 37° C. for 15 minutes. Aliquots (150 μl; equivalent to 2.5 mg wet weight of tissue/tube) were then added to tubes containing 275 μl of Krebs-Physiological buffer and 50 μl of Krebs-Physiological buffer (total uptake) or 50 μl of test compound (at 10 concentrations ranging from […]) or 50 μl of desipramine (10^-5 M; non-specific uptake). Uptake was initiated by the addition of 25 μl of freshly prepared [^3 H]noradrenaline (10 nM), followed by vortexing and was continued for 5 minutes at 37° C. in the shaking water bath. Uptake was terminated by filtration under vacuum through Whatman GF/B filters using a Brandel cell harvester. Filters were then washed with 8 ml ice-cold saline. The scored filter paper discs were placed into vials, scintillation fluid added and radioactivity determined by liquid scintillation counting.
as §2, §3

[3] = target: T3, dopamine (DA) reuptake sites (Rattus norvegicus, UniProt P23977); experiment: inhibition of [3H]dopamine uptake in vitro, striatal synaptosomes; details: [3H]dopamine 2.5 nM, means of three independent determinations
T3 construct: Striatal tissue from the brains of male Charles River rats weighing 150-250 g; from tissue; host or cells: rat brain striatum (crude synaptosomes in A1, washed membranes in A4)
Procedure: as §1, with “Striatal” for “Frontal cortical”, “Charles River” for “Sprague-Dawley”, “weighing” for “(Charles River; weight range”, “g” for “g)”, “4.2” for “8.3”
Crude synaptosomes were incubated in a shaking water bath at 37° C. for 15 minutes. Aliquots (150 μl; equivalent to 0.625 mg wet weight of tissue/tube) were then added to tubes containing 275 μl of Krebs-Henseleit buffer and 50 μl of Krebs-Henseleit buffer (total uptake) or 50 μl of test compound (10 concentrations ranging from 10^-11 -10^-4 M or 50 μl of GBR 12909 (10^-5 M; non-specific uptake). Uptake was initiated by the addition of 25 μl of freshly prepared [^3 H]dopamine (2.5 nM), followed by vortexing and was continued for 5 minutes at 37° C. in the shaking water bath.
Uptake was terminated by filtration under vacuum through Skatron 11735 filters using a Skatron cell harvester. Filters were then washed with 8 ml ice-cold saline. The scored filter paper discs were punched into vials, scintillation fluid added and radioactivity determined by liquid scintillation counting.
as §2, §3

T2 sequence (Q63380 1-617): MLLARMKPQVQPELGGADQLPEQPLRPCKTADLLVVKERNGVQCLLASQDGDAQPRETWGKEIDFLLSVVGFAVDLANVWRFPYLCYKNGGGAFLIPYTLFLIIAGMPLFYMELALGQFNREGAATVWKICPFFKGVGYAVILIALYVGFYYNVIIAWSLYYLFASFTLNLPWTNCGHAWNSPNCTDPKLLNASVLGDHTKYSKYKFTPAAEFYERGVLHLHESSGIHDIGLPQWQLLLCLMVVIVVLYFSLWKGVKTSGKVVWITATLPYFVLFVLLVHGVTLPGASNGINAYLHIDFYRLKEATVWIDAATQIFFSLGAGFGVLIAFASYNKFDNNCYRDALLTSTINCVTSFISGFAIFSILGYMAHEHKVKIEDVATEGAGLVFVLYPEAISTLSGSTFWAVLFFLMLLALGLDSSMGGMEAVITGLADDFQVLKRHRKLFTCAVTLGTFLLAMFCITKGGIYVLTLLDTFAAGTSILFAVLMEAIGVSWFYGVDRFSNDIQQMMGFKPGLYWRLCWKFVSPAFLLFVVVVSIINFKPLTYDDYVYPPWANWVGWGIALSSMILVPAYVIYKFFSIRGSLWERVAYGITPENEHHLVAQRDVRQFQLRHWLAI
T1 sequence (P31652 whole entry): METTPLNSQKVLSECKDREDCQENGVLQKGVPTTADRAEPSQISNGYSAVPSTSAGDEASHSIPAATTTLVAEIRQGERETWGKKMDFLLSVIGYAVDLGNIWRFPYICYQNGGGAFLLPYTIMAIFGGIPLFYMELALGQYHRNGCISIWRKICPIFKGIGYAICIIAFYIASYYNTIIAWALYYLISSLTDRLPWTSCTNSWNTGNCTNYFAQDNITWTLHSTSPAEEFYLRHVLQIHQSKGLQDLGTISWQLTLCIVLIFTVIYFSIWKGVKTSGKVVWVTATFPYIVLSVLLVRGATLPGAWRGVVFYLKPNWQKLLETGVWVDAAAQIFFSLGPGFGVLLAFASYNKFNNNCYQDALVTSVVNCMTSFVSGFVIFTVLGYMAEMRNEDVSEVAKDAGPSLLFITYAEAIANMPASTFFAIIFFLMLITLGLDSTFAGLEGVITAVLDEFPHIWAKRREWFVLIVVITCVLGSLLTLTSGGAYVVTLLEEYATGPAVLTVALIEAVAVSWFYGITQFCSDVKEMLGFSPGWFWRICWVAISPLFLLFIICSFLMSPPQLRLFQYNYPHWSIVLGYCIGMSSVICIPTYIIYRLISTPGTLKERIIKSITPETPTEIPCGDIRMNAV
T3 sequence (P23977 whole entry): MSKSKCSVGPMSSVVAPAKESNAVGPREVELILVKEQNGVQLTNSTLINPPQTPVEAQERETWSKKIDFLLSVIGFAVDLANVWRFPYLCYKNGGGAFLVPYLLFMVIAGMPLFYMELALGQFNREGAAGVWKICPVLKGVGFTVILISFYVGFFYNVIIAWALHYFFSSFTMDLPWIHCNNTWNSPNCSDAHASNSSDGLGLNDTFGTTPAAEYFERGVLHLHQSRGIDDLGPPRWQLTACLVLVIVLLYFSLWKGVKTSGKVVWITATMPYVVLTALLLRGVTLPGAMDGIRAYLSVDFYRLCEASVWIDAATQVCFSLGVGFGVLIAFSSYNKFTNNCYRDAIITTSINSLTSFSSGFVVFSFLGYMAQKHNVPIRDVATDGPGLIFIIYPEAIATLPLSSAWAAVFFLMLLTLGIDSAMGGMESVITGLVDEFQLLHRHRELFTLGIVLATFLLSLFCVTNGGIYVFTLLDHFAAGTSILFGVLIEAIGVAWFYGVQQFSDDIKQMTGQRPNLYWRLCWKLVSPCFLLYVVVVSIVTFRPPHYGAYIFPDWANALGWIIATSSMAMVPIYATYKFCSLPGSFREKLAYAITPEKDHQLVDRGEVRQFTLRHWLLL

With Clc1ccc(C2(C3=CSC4=NCCCN34)CCC2)cc1 [Example 2, 3-[1-(4-chlorophenyl)cyclobutyl]-6,7-dihydro-5H-thiazolo[3,2-a]pyrimidine hydrobromide] the Ki [1] was 782 nM, the Ki [2] was 261 nM and the Ki [3] was 104 nM.

Molecule Clc1ccc(C2(C3=CSC4=NCCCN34)CCC2)cc1Cl [Example 4, 3-[1-(3,4-dichlorophenyl)cyclobutyl]-6,7-dihydro-5H-thiazolo[3,2-a]pyrimidine hydrobromide] has a Ki [1] of 137 nM, a Ki [2] of 15 nM and a Ki [3] of 9.5 nM.

With Clc1ccc(C2(C3=CSC4=NCCN34)CCC2)cc1Cl [Example 1, 3-[1-(3,4-dichlorophenyl)cyclobuty]-5,6-dihydroimidazo[2,1-b]thiazole hydrobromide] the Ki ([1]; rat frontal cortical synaptosomes, [3H]5-HT 2 nM, means of three independent determinations, read-out: 5-HT uptake (Ki)) was 120 nM, the Ki [2] was 34 nM and the Ki [3] was 9.2 nM.

For Clc1ccc(C2(C3=CSC4=NCCN34)CCC2)cc1 [Example 3, 3-[1-(4-chlorophenyl)cyclobutyl]-5,6-dihydroimidazo-[2,1-b]thiazole hydrobromide], the Ki [1] was 795 nM, the Ki [2] was 22 nM and the Ki [3] was 79 nM.

Molecule C1=C(C2(c3ccc4ccccc4c3)CCC2)N2CCN=C2S1 [Example 5, 3-[1-(2-naphthyl)cyclobutyl]-5,6-dihydroimidazo[2,1-b]thiazole hydrobromide] has a Ki [1] of 25 nM, a Ki [2] of 4.4 nM and a Ki [3] of 5.9 nM.
